Where “and” joins values, the source holds several entries; their conditions need not be identical. Equal values may be shown once. Read-outs that look alike come from different tables or passages of the source.
Columns and labels:
[1] = target: T1, human CB2 receptor (Homo sapiens, UniProt P34972); experiment: cAMP Hunter functional assay in NKH-477-stimulated CHO-K1 cells overexpressing CB2R; details: for Functional behavior at CB2R: agonist mode / antagonist mode with JWH-133 4 µM challenge
[2] = target: human recombinant CB1 receptor (Homo sapiens, UniProt P21554); experiment: Competition binding assay, displacement of [3H]-CP-55,940, CB1R
Method: (§1) Binding at equilibrium was performed as previously reported. […] All compounds were tested following the procedure described by the manufacturer (Perkin Elmer, Italy). […] Ki values were calculated by applying the Cheng–Prusoff equation to the IC50 values (obtained by GraphPad) for the displacement of the bound radioligand by increasing concentrations of the test compound.

[3] = target: T1, human CB2 receptor; experiment: Competition binding assay, displacement of [3H]-CP-55,940, CB2R; design: logKiCB2 (nM) Exp.: unit not given here
Method: as §1

[4] = CB2R Ki, membranes from HEK cells, [3H]CP-55,940, mean ± SD, at least three experiments in duplicate
[5] = membranes from HEK cells, [3H]CP-55,940, mean ± SD, at least three experiments in duplicate, read-out: CB1R Ki
[6] = membranes from HEK cells, [3H]CP-55,940, mean ± SD, at least three experiments in duplicate, read-out: CB2R Ki

Chain of human recombinant CB1 receptor (P21554 whole entry): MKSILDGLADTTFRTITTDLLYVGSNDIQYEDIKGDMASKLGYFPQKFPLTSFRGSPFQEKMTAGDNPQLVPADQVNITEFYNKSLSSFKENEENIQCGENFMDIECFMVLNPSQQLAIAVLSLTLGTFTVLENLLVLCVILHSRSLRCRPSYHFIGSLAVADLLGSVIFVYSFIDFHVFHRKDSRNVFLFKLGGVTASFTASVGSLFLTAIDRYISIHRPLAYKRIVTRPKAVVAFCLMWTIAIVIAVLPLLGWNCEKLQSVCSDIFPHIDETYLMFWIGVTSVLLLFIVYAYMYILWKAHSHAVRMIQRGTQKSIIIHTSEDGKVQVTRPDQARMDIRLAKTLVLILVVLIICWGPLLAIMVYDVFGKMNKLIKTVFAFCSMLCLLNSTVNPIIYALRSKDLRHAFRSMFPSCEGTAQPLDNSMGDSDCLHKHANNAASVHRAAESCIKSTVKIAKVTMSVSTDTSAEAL
T1 sequence (P34972 whole entry): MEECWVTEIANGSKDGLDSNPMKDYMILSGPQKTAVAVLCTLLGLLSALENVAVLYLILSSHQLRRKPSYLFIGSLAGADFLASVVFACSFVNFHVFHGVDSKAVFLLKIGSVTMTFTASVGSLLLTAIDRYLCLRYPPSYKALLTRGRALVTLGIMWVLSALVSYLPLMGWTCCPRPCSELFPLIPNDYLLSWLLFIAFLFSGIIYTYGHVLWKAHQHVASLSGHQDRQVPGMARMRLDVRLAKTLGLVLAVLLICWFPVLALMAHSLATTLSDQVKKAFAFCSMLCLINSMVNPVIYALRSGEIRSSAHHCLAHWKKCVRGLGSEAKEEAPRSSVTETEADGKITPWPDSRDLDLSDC

CC(C)n1c(=O)c(C(=O)NC23CC4CC(CC(C4)C2)C3)c(O)c2c1cnn2C [Compound 57]
EC50 [1]: 1.59 µM | Functional behavior at CB2R [1]: typical agonist behavior | Emax ([1]; agonist mode, 25 µM NKH477): 84.05 | Ki [2]: > 10 µM | SI (selectivity index for CB2R, Ki(CB1R)/Ki(CB2R)) [3]: >184 | Ki [3, 4]: 54.3 ± 12.3 nM | logKiCB2 (nM) Exp. ([3]; log of experimental Ki): 1.73

CCCCn1c(=O)c(C(=O)NC23CC4CC(CC(C4)C2)C3)c(O)c2nn(C)c(C)c21 [Compound 54, N-(Adamantan-1-yl)-4-(1-butyl)-7-hydroxy-2,3-dimethyl-5-oxo-4,5-dihydro-2H-pyrazolo[4,3-b]pyridine-6-carboxamide]
melting point: 213 to 216 °C | CB1 receptor activity in words [2]: not active at all | Ki [2, 5]: > 10 µM | Ki [3, 4]: < 20 nM and 2.16 nM | logKiCB2 (nM) Exp. ([3]; log of experimental Ki): 0.33

CCCCn1c(=O)c(C(=O)NC2CCCc3ccccc32)c(O)c2nn(C)cc21 (stereo not drawn) [Compound 18, 4-(1-Butyl)-7-hydroxy-2-methyl-5-oxo-N-(1,2,3,4-tetrahydronaphthalen-1-yl)-4,5-dihydro-2H-pyrazolo[4,3-b]pyridine-6-carboxamide]
Functional behavior at CB2R [1]: antagonist/inverse agonist behavior | Ki [2, 5]: > 10 µM | SI (selectivity index for CB2R, Ki(CB1R)/Ki(CB2R)) [3]: >578 | Ki [3, 4]: < 20 nM and 17.3 nM | Ki ([3]; logKiCB2 (nM) Exp., log of experimental Ki): 24 nM

CCCCn1c(=O)c(C(=O)NCc2ccc(F)cc2)c(O)c2nn(C)cc21 [Compound 17, 4-(1-Butyl)-N-(4-fluorobenzyl)-7-hydroxy-2-methyl-5-oxo-4,5-dihydro-2H-pyrazolo[4,3-b]pyridine-6-carboxamide]
Ki [2, 5]: > 10 µM | Ki [3, 6]: > 10000 nM

CCCCn1c(=O)c(C(=O)NC(c2ccccc2)c2ccccc2)c(O)c2nn(C)cc21 [Compound 19, N-Benzhydryl-4-(1-butyl)-7-hydroxy-2-methyl-5-oxo-4,5-dihydro-2H-pyrazolo[4,3-b]pyridine-6-carboxamide]
Ki [2, 5]: > 10 µM | SI (selectivity index for CB2R, Ki(CB1R)/Ki(CB2R)) [3]: >70 | logKiCB2 (nM) Exp. ([3]; log of experimental Ki): 2.15 | Ki [3, 6]: 142 ± 110 nM

CC(C)n1c(=O)c(C(=O)NC23CC4CC(CC(C4)C2)C3)c(O)c2nn(CC(=O)OC(C)(C)C)cc21 [Compound 61]
Ki [2, 5]: > 10 µM | CB2 receptor affinity in words [3]: inactive | Ki [3, 6]: > 10000 nM

CC(C)n1c(=O)c(C(=O)NC23CC4CC(CC(C4)C2)C3)c(O)c2n[nH]cc21 [Compound 56]
Ki [2, 5]: > 10 µM | CB2 receptor affinity in words [3]: inactive | Ki [3, 6]: > 10000 nM

CCCCn1c(=O)c(C(=O)NC23CC4CC(CC(C4)C2)C3)c(O)c2nn(CC)cc21 [Compound 35, N-(Adamantan-1-yl)-4-(1-butyl)-2-ethyl-7-hydroxy-5-oxo-4,5-dihydro-2H-pyrazolo[4,3-b]pyridine-6-carboxamide]
Functional behavior at CB2R [1]: antagonist/inverse agonist behavior | Ki [2, 5]: 0.102 ± 0.0152 µM | SI (selectivity index for CB2R, Ki(CB1R)/Ki(CB2R)) [3]: 227 | Ki [3, 4]: < 20 nM and 0.45 nM | logKiCB2 (nM) Exp. ([3]; log of experimental Ki): −0.35

CC(C)n1c(=O)c(C(=O)NC(c2ccccc2)c2ccccc2)c(O)c2nn(C)cc21 [Compound 25, N-Benzhydryl-7-hydroxy-4-isopropyl-2-methyl-5-oxo-4,5-dihydro-2H-pyrazolo[4,3-b]pyridine-6-carboxamide]
Ki [2, 5]: > 10 µM | Ki [3, 6]: > 10000 nM

CCCCn1c(=O)c(C(=O)NC(C)(C)C)c(O)c2nn(CC)cc21 [Compound 34, 4-(1-Butyl)-N-(tert-butyl)-2-ethyl-7-hydroxy-5-oxo-4,5-dihydro-2H-pyrazolo[4,3-b]pyridine-6-carboxamide]
Ki [2, 5]: > 10 µM | SI (selectivity index for CB2R, Ki(CB1R)/Ki(CB2R)) [3]: >95 | logKiCB2 (nM) Exp. ([3]; log of experimental Ki): 2.02 | Ki [3, 6]: 106 ± 18.1 nM

CCn1cc2c(n1)c(O)c(C(=O)NC13CC4CC(CC(C4)C1)C3)c(=O)n2CC [Compound 33, N-(Adamantan-1-yl)-2,4-diethyl-7-hydroxy-5-oxo-4,5-dihydro-2H-pyrazolo[4,3-b]pyridine-6-carboxamide]
melting point: 245 to 247 °C | Ki [2, 5]: > 10 µM | SI (selectivity index for CB2R, Ki(CB1R)/Ki(CB2R)) [3]: >416 | logKiCB2 (nM) Exp. ([3]; log of experimental Ki): 1.38 | Ki [3, 6]: 24 ± 15.3 nM

COc1ccc(Cn2c(=O)c(C(=O)NC34CC5CC(CC(C5)C3)C4)c(O)c3nn(C)cc32)c(OC)c1 [Compound 27, N-(Adamantan-1-yl)-4-(2,4-dimethoxybenzyl)-7-hydroxy-2-methyl-5-oxo-4,5-dihydro-2H-pyrazolo[4,3-b]pyridine-6-carboxamide]
melting point: > 270 °C | Ki [2, 5]: > 10 µM | CB2 receptor affinity in words [3]: completely inactive | Ki [3, 6]: > 10000 nM

CCCCCn1c(=O)c(C(=O)NC23CC4CC(CC(C4)C2)C3)c(O)c2c1c(C)nn2C [Compound 52, N-(Adamantan-1-yl)-7-hydroxy-1,3-dimethyl-5-oxo-4-(1-pentyl)-4,5-dihydro-1H-pyrazolo[4,3-b]pyridine-6-carboxamide]
melting point: 167 to 169 °C | Ki [2, 5]: > 10 µM | SI (selectivity index for CB2R, Ki(CB1R)/Ki(CB2R)) [3]: >293 | Ki [3, 4]: 34.1 ± 4.88 nM | logKiCB2 (nM) Exp. ([3]; log of experimental Ki): 1.53

C#CCn1ncc2c1c(O)c(C(=O)NC13CC4CC(CC(C4)C1)C3)c(=O)n2C(C)C [Compound 58]
Ki [2]: > 10 µM | SI (selectivity index for CB2R, Ki(CB1R)/Ki(CB2R)) [3]: >162 | Ki [3, 4]: 61.8 ± 20.8 nM | logKiCB2 (nM) Exp. ([3]; log of experimental Ki): 1.79

CC(C)n1c(=O)c(C(=O)NC2CCCCCCC2)c(O)c2nn(C)cc21 [Compound 23, N-Cyclooctyl-7-hydroxy-4-isopropyl-2-methyl-5-oxo-4,5-dihydro-2H-pyrazolo[4,3-b]pyridine-6-carboxamide]
Ki [2, 5]: > 10 µM | Ki [3, 6]: > 10000 nM

CC(C)n1c(=O)c(C(=O)NC23CC4CC(CC(O)(C4)C2)C3)c(O)c2nn(C)cc21 [Compound 22, 7-Hydroxy-N-(1-hydroxyadamantan-3-yl)-4-isopropyl-2-methyl-5-oxo-4,5-dihydro-2H-pyrazolo[4,3-b]pyridine-6-carboxamide]
Ki [2, 5]: > 10 µM | Ki [3, 6]: > 10000 nM

C#CCn1cc2c(n1)c(O)c(C(=O)NC13CC4CC(CC(C4)C1)C3)c(=O)n2C(C)C [Compound 59]
Ki [2]: > 10 µM | CB2 receptor affinity in words [3]: inactive | Ki [3, 4]: > 10000 nM

Cc1c2c(nn1C)c(O)c(C(=O)NC13CC4CC(CC(C4)C1)C3)c(=O)n2C(C)C [Compound 53, N-(Adamantan-1-yl)-7-hydroxy-4-isopropyl-2,3-dimethyl-5-oxo-4,5-dihydro-2H-pyrazolo[4,3-b]pyridine-6-carboxamide]
melting point: > 260 °C | Ki [2, 5]: > 10 µM | CB2 receptor affinity in words [3]: inactive | Ki [3, 6]: > 10000 nM

CC(C)n1c(=O)c(C(=O)NC2CCCc3ccccc32)c(O)c2nn(C)cc21 (stereo not drawn) [Compound 24, 7-Hydroxy-4-isopropyl-2-methyl-5-oxo-N-(1,2,3,4-tetrahydronaphthalen-1-yl)-4,5-dihydro-2H-pyrazolo[4,3-b]pyridine-6-carboxamide]
Ki [2, 5]: > 10 µM | Ki [3, 6]: > 10000 nM

CC(C)n1c(=O)c(C(=O)NC23CC4CC(CC(C4)C2)C3)c(O)c2nn(C)cc21 [Compound 21, N-(Adamantan-1-yl)-7-hydroxy-4-isopropyl-2-methyl-5-oxo-4,5-dihydro-2H-pyrazolo[4,3-b]pyridine-6-carboxamide]
Ki [2]: > 10 µM | Ki [3, 4]: > 10000 nM

CCCCn1c(=O)c(C(=O)NC23CC4CC(CC(C4)C2)C3)c(O)c2c1c(C)nn2C [Compound 51, N-(Adamantan-1-yl)-4-(1-butyl)-7-hydroxy-1,3-dimethyl-5-oxo-4,5-dihydro-1H-pyrazolo[4,3-b]pyridine-6-carboxamide]
melting point: 162 to 165 °C | Ki [2, 5]: > 10 µM | SI (selectivity index for CB2R, Ki(CB1R)/Ki(CB2R)) [3]: >280 | Ki [3, 4]: 35.6 ± 19.5 nM | logKiCB2 (nM) Exp. ([3]; log of experimental Ki): 1.55

CC(C)n1c(=O)c(C(=O)NC23CC4CC(CC(C4)C2)C3)c(O)c2c1cnn2CC#N [Compound 60]
Ki [2, 5]: > 10 µM | SI (selectivity index for CB2R, Ki(CB1R)/Ki(CB2R)) [3]: >206 | logKiCB2 (nM) Exp. ([3]; log of experimental Ki): 1.68 | Ki [3, 6]: 48.5 ± 10.9 nM

CCCCn1c(=O)c(C(=O)N[C@@H](Cc2ccccc2)C(=O)OC(C)(C)C)c(O)c2nn(C)cc21 [Compound 20, tert-Butyl (4-Butyl-7-hydroxy-2-methyl-5-oxo-4,5-dihydro-2H-pyrazolo[4,3-b]pyridine-6-carbonyl)-L-phenylalaninate]
Ki [2, 5]: > 10 µM | Ki [3, 6]: > 10000 nM

CCCCn1c(=O)c(C(=O)Nc2ccc(F)cc2)c(O)c2nn(C)cc21 [Compound 16, 4-(1-Butyl)-N-(4-fluorophenyl)-7-hydroxy-2-methyl-5-oxo-4,5-dihydro-2H-pyrazolo[4,3-b]pyridine-6-carboxamide]
Ki [2, 5]: > 10 µM | Ki [3, 6]: > 10000 nM

CCCCn1c(=O)c(C(=O)NC(C)(C)C)c(O)c2nn(C)cc21 [Compound 13, 4-(1-Butyl)-N-(tert-butyl)-7-hydroxy-2-methyl-5-oxo-4,5-dihydro-2H-pyrazolo[4,3-b]pyridine-6-carboxamide]
Ki [2, 5]: > 10 µM | Ki [3, 6]: > 10000 nM

CCCCn1c(=O)c(C(=O)NC2CCCC2)c(O)c2nn(C)cc21 [Compound 14, 4-(1-Butyl)-N-cyclopentyl-7-hydroxy-2-methyl-5-oxo-4,5-dihydro-2H-pyrazolo[4,3-b]pyridine-6-carboxamide]
Ki [2, 5]: > 10 µM | Ki [3, 6]: > 10000 nM

CC(C)n1c(=O)c(C(=O)NC23CC4CC(CC(C4)C2)C3)c(O)c2nn(Cc3ccc(F)cc3)cc21 [Compound 62]
Ki [2, 5]: > 10 µM | CB2 receptor affinity in words [3]: inactive | Ki [3, 6]: > 10000 nM

— article PMC10343475, “Systematic Modification of the Substitution Pattern of the 7-Hydroxy-5-oxopyrazolo[4,3-b]pyridine-6-carboxamide Scaffold Enabled the Discovery of New Ligands with High Affinity and Selectivity for the Cannabinoid Type 2 Receptor” (Molecules, 2023)
